# Measurements taken from the NIST ThermoML archive (doi:10.1016/j.jct.2017.12.015).
# ± gives the expanded uncertainty stated by the source.
# Tests used:
# [1] = refractive index (Na D-line) (dimensionless); conditions: 298 K; 101.33 kPa; Liquid; Standard Abbe refractometry
# [2] = Liquid, Ebulliometric method (Recirculating still)
structure (smiles),measurement,setting,value
O [water],refractive index,[1],1.3325 ± 0.001
CC1CCCO1 (configuration not stated) [2-methyltetrahydrofuran],refractive index,[1],1.40299 ± 0.001
same,vapor or sublimation pressure,[2]; 323.22 K,36.4 ± 0.3 kPa
same,vapor or sublimation pressure,[2]; 327.67 K,43 ± 0.3 kPa
same,vapor or sublimation pressure,[2]; 337.97 K,62.1 ± 0.3 kPa
same,vapor or sublimation pressure,[2]; 341.54 K,70.1 ± 0.3 kPa
same,vapor or sublimation pressure,[2]; 347.21 K,84.4 ± 0.3 kPa
same,vapor or sublimation pressure,[2]; 350.53 K,93.8 ± 0.4 kPa
same,vapor or sublimation pressure,[2]; 352.84 K,100.8 ± 0.4 kPa
CC(C)=O [acetone],refractive index,[1],1.3555 ± 0.001
O=Cc1ccco1 [2-furaldehyde],refractive index,[1],1.52364 ± 0.001
COC1CCCC1 [methoxycyclopentane],refractive index,[1],1.41833 ± 0.001
same,vapor or sublimation pressure,[2]; 340.92 K,29.4 ± 0.2 kPa
same,vapor or sublimation pressure,[2]; 345.38 K,34.6 ± 0.2 kPa
same,vapor or sublimation pressure,[2]; 350.4 K,41.4 ± 0.3 kPa
same,vapor or sublimation pressure,[2]; 356.3 K,50.7 ± 0.3 kPa
same,vapor or sublimation pressure,[2]; 363.57 K,64.4 ± 0.3 kPa
same,vapor or sublimation pressure,[2]; 366.69 K,71.1 ± 0.3 kPa
same,vapor or sublimation pressure,[2]; 369.78 K,78.3 ± 0.3 kPa
same,vapor or sublimation pressure,[2]; 374.39 K,90 ± 0.3 kPa
same,vapor or sublimation pressure,[2]; 377.89 K,99.8 ± 0.3 kPa
CC(=O)O [acetic acid],refractive index,[1],1.37203 ± 0.001
